Assay results from ChEMBL document CHEMBL1671662, “In vitro activities of telavancin and six comparator agents against anaerobic bacterial isolates” (2009).
Values after ≈ are worked out from the molar mass of the structure shown.

Assays:
Format in all cases: functional
[1] = system: Clostridium bolteae; test: Antibacterial activity against Clostridium bolteae by CLSI M11-A6 agar dilution method; settings: Enterocloster bolteae
[2] = system: Clostridium hathewayi; test: Antibacterial activity against Clostridium hathewayi by CLSI M11-A6 agar dilution method; settings: Hungatella hathewayi
[3] = system: [Clostridium] innocuum; test: Antibacterial activity against Clostridium innocuum by CLSI M11-A6 agar dilution method
[4] = system: Clostridium perfringens; test: Antibacterial activity against Clostridium perfringens by CLSI M11-A6 agar dilution method
[5] = system: Clostridium subterminale; test: Antibacterial activity against Clostridium subterminale by CLSI M11-A6 agar dilution method
[6] = system: Paraclostridium bifermentans; test: Antibacterial activity against Clostridium bifermentans by CLSI M11-A6 agar dilution method
[7] = system: Clostridium celerecrescens; test: Antibacterial activity against Clostridium celerecrescens by CLSI M11-A6 agar dilution method; settings: Lacrimispora celerecrescens
[8] = system: Clostridium disporicum; test: Antibacterial activity against Clostridium disporicum by CLSI M11-A6 agar dilution method
[9] = system: Clostridium glycolicum; test: Antibacterial activity against Clostridium glycolicum by CLSI M11-A6 agar dilution method; settings: Terrisporobacter glycolicus
[10] = system: Clostridium spiroforme; test: Antibacterial activity against Clostridium spiroforme by CLSI M11-A6 agar dilution method; settings: Thomasclavelia spiroformis
[11] = system: Clostridium sporogenes; test: Antibacterial activity against Clostridium sporogenes by CLSI M11-A6 agar dilution method
[12] = system: Clostridium sporosphaeroides; test: Antibacterial activity against Clostridium sporosphaeroides by CLSI M11-A6 agar dilution method; settings: Faecalispora sporosphaeroides
[13] = system: Clostridium tertium; test: Antibacterial activity against Clostridium tertium by CLSI M11-A6 agar dilution method
[14] = system: Clostridium sp.; test: Antibacterial activity against Clostridium sp. by CLSI M11-A6 agar dilution method
[15] = system: Actinomyces naeslundii; test: Antibacterial activity against Actinomyces naeslundii by CLSI M11-A6 agar dilution method
[16] = system: Bifidobacterium dentium; test: Antibacterial activity against Bifidobacterium dentium by CLSI M11-A6 agar dilution method
[17] = system: Bifidobacterium pseudolongum; test: Antibacterial activity against Bifidobacterium pseudolongum by CLSI M11-A6 agar dilution method
[18] = system: Catenibacterium mitsuokai; test: Antibacterial activity against Catenibacterium mitsuokai by CLSI M11-A6 agar dilution method
[19] = system: Coriobacterium; test: Antibacterial activity against […] by CLSI M11-A6 agar dilution method
[20] = system: Eggerthella lenta; test: Antibacterial activity against Eggerthella lenta by CLSI M11-A6 agar dilution method
[21] = system: Holdemania filiformis; test: Antibacterial activity against Holdemania filiformis by CLSI M11-A6 agar dilution method
[22] = system: Ruminococcus gnavus; test: Antibacterial activity against Ruminococcus gnavus by CLSI M11-A6 agar dilution method; settings: Mediterraneibacter gnavus
[23] = system: Blautia luti; test: Antibacterial activity against Ruminococcus luti by CLSI M11-A6 agar dilution method
[24] = system: Blautia producta; test: Antibacterial activity against Ruminococcus productus by CLSI M11-A6 agar dilution method
[25] = system: Anaerococcus prevotii; test: Antibacterial activity against Anaerococcus prevotii by CLSI M11-A6 agar dilution method
[26] = system: Finegoldia magna; test: Antibacterial activity against Finegoldia magna by CLSI M11-A6 agar dilution method
[27] = system: Peptoniphilus asaccharolyticus; test: Antibacterial activity against Peptoniphilus asaccharolyticus by CLSI M11-A6 agar dilution method
[28] = system: Peptostreptococcus anaerobius; test: Antibacterial activity against Peptostreptococcus anaerobius by CLSI M11-A6 agar dilution method
[29] = system: Streptococcus constellatus; test: Antibacterial activity against Streptococcus constellatus by CLSI M11-A6 agar dilution method
[30] = system: Streptococcus intermedius; test: Antibacterial activity against Streptococcus intermedius by CLSI M11-A6 agar dilution method
[31] = system: Parabacteroides distasonis; test: Antibacterial activity against Parabacteroides distasonis by CLSI M11-A6 agar dilution method
[32] = system: Parabacteroides merdae; test: Antibacterial activity against Parabacteroides merdae by CLSI M11-A6 agar dilution method
[33] = system: Bacteroides fragilis; test: Antibacterial activity against Bacteroides fragilis by CLSI M11-A6 agar dilution method
[34] = system: Bacteroides ovatus; test: Antibacterial activity against Bacteroides ovatus by CLSI M11-A6 agar dilution method
[35] = system: Bacteroides thetaiotaomicron; test: Antibacterial activity against Bacteroides thetaiotaomicron by CLSI M11-A6 agar dilution method
[36] = system: Fusobacterium varium; test: Antibacterial activity against Fusobacterium varium by CLSI M11-A6 agar dilution method
[37] = system: Prevotella bivia; test: Antibacterial activity against Prevotella bivia by CLSI M11-A6 agar dilution method
[38] = system: Prevotella buccae; test: Antibacterial activity against Prevotella buccae by CLSI M11-A6 agar dilution method; settings: Segatella buccae
[39] = system: Prevotella intermedia; test: Antibacterial activity against Prevotella intermedia by CLSI M11-A6 agar dilution method
[40] = system: Hoylesella loescheii; test: Antibacterial activity against Prevotella loescheii by CLSI M11-A6 agar dilution method
[41] = system: Prevotella melaninogenica; test: Antibacterial activity against Prevotella melaninogenica by CLSI M11-A6 agar dilution method
[42] = system: Hoylesella oralis; test: Antibacterial activity against Prevotella oralis by CLSI M11-A6 agar dilution method
[43] = system: Prevotella oris; test: Antibacterial activity against Prevotella oris by CLSI M11-A6 agar dilution method; settings: Segatella oris

For `CC(=O)NC[C@H]1CN(c2ccc(N3CCOCC3)c(F)c2)C(=O)O1` [LINEZOLID], the MIC50 [1] was 4 µg/mL (≈ 11.9 µM), the MIC90 [1] was 4 µg/mL (≈ 11.9 µM) and the MIC50 [2] was 2 µg/mL (≈ 5.93 µM). The MIC90 [2] was 4 µg/mL (≈ 11.9 µM), the MIC [3] was 2 µg/mL (≈ 5.93 µM) and the MIC50 [3] was 2 µg/mL (≈ 5.93 µM). It also gave an MIC90 [3] of 4 µg/mL (≈ 11.9 µM), an MIC50 [4] of 2 µg/mL (≈ 5.93 µM) and an MIC90 [4] of 2 µg/mL (≈ 5.93 µM). The MIC50 [5] was 4 µg/mL (≈ 11.9 µM), the MIC90 [5] was 4 µg/mL (≈ 11.9 µM) and the MIC50 [6] was 2 µg/mL (≈ 5.93 µM). The MIC90 [6] was 4 µg/mL (≈ 11.9 µM), the MIC50 [7] was 2 µg/mL (≈ 5.93 µM) and the MIC90 [7] was 4 µg/mL (≈ 11.9 µM). It also gave an MIC50 [8] of 2 µg/mL (≈ 5.93 µM), an MIC90 [8] of 4 µg/mL (≈ 11.9 µM) and an MIC50 [9] of 2 µg/mL (≈ 5.93 µM). The MIC90 [9] was 4 µg/mL (≈ 11.9 µM), the MIC50 [10] was 2 µg/mL (≈ 5.93 µM) and the MIC90 [10] was 4 µg/mL (≈ 11.9 µM). The MIC50 [11] was 2 µg/mL (≈ 5.93 µM), the MIC90 [11] was 4 µg/mL (≈ 11.9 µM) and the MIC50 [12] was 2 µg/mL (≈ 5.93 µM). It also gave an MIC90 [12] of 4 µg/mL (≈ 11.9 µM), an MIC50 [13] of 2 µg/mL (≈ 5.93 µM) and an MIC90 [13] of 4 µg/mL (≈ 11.9 µM). For the same molecule, the MIC50 [14] was 2 µg/mL (≈ 5.93 µM), the MIC90 [14] was 4 µg/mL (≈ 11.9 µM) and the MIC50 [15] was 1 µg/mL (≈ 2.96 µM). The MIC90 [15] was 8 µg/mL (≈ 23.7 µM), the MIC50 [16] was 1 µg/mL (≈ 2.96 µM) and the MIC90 [16] was 8 µg/mL (≈ 23.7 µM). For the same molecule, the MIC50 [17] was 1 µg/mL (≈ 2.96 µM), the MIC90 [17] was 8 µg/mL (≈ 23.7 µM) and the MIC50 [18] was 1 µg/mL (≈ 2.96 µM). The MIC90 [18] was 8 µg/mL (≈ 23.7 µM), the MIC50 [19] was 1 µg/mL (≈ 2.96 µM) and the MIC90 [19] was 8 µg/mL (≈ 23.7 µM). For the same molecule, the MIC50 [20] was 1 µg/mL (≈ 2.96 µM), the MIC90 [20] was 8 µg/mL (≈ 23.7 µM) and the MIC50 [21] was 1 µg/mL (≈ 2.96 µM). For the same molecule, the MIC90 [21] was 8 µg/mL (≈ 23.7 µM), the MIC50 [22] was 2 µg/mL (≈ 5.93 µM) and the MIC90 [22] was 2 µg/mL (≈ 5.93 µM). For the same molecule, the MIC50 [23] was 2 µg/mL (≈ 5.93 µM), the MIC90 [23] was 4 µg/mL (≈ 11.9 µM) and the MIC50 [24] was 2 µg/mL (≈ 5.93 µM). For the same molecule, the MIC90 [24] was 4 µg/mL (≈ 11.9 µM), the MIC50 [25] was 1 µg/mL (≈ 2.96 µM) and the MIC90 [25] was 2 µg/mL (≈ 5.93 µM). It also gave an MIC50 [26] of 1 µg/mL (≈ 2.96 µM), an MIC90 [26] of 2 µg/mL (≈ 5.93 µM) and an MIC50 [27] of 1 µg/mL (≈ 2.96 µM). It also gave an MIC90 [27] of 2 µg/mL (≈ 5.93 µM), an MIC50 [28] of 1 µg/mL (≈ 2.96 µM) and an MIC90 [28] of 2 µg/mL (≈ 5.93 µM). For the same molecule, the MIC50 [29] was 2 µg/mL (≈ 5.93 µM), the MIC90 [29] was 4 µg/mL (≈ 11.9 µM) and the MIC50 [30] was 2 µg/mL (≈ 5.93 µM). For the same molecule, the MIC90 [30] was 4 µg/mL (≈ 11.9 µM), the MIC50 [31] was 4 µg/mL (≈ 11.9 µM) and the MIC90 [31] was 4 µg/mL (≈ 11.9 µM). For the same molecule, the MIC50 [32] was 4 µg/mL (≈ 11.9 µM), the MIC90 [32] was 4 µg/mL (≈ 11.9 µM) and the MIC [33] was 4 µg/mL (≈ 11.9 µM). For the same molecule, the MIC50 [33] was 4 µg/mL (≈ 11.9 µM), the MIC90 [33] was 8 µg/mL (≈ 23.7 µM) and the MIC50 [34] was 4 µg/mL (≈ 11.9 µM). It also gave an MIC90 [34] of 4 µg/mL (≈ 11.9 µM), an MIC50 [35] of 4 µg/mL (≈ 11.9 µM) and an MIC90 [35] of 8 µg/mL (≈ 23.7 µM). The MIC50 [36] was 1 µg/mL (≈ 2.96 µM), the MIC90 [36] was 1 µg/mL (≈ 2.96 µM) and the MIC50 [37] was 2 µg/mL (≈ 5.93 µM). The MIC90 [37] was 2 µg/mL (≈ 5.93 µM), the MIC50 [38] was 2 µg/mL (≈ 5.93 µM) and the MIC90 [38] was 2 µg/mL (≈ 5.93 µM). For the same molecule, the MIC50 [39] was 2 µg/mL (≈ 5.93 µM), the MIC90 [39] was 2 µg/mL (≈ 5.93 µM) and the MIC50 [40] was 2 µg/mL (≈ 5.93 µM). It also gave an MIC90 [40] of 2 µg/mL (≈ 5.93 µM), an MIC50 [41] of 2 µg/mL (≈ 5.93 µM) and an MIC90 [41] of 2 µg/mL (≈ 5.93 µM). For the same molecule, the MIC50 [42] was 2 µg/mL (≈ 5.93 µM), the MIC90 [42] was 2 µg/mL (≈ 5.93 µM) and the MIC50 [43] was 2 µg/mL (≈ 5.93 µM). For the same molecule, the MIC90 [43] was 2 µg/mL (≈ 5.93 µM).
